Here are results for one compound from patent publication EP4778932A1 (priority 2023, dated 2025).

Some results are limits rather than exact numbers.

For series [1], the system named is specific soft tissue sarcomas. The following applies: cited from earlier work.
The conditions of series [2]: 378 patients who received at least one dose; cited from earlier work.
For series [3], the system named is MDA-MB-231. The experiment in a line: cells. Format: cell-based. The following applies: Homo sapiens, 120 h; MDA-MB-231 cells, five days co-incubation; read-out: IC50 (nM) MDA-MB-231. The procedure: (§1) MDA-MB-231, OV90, and NCI-N87 cells at defined cell densities (1,500 cells per well, 80 µL volume) were seeded into 96-well plates. The cells were cultured overnight in a constant-temperature incubator (37°C, 5% CO2). Ecteinascidin derivative solutions at a maximum concentration of 2 mM were first prepared in DMSO, and serial 1:4 gradient dilutions were performed. 1 µL of each DMSO-prepared dilution was added to 99 µL of PBS containing 10% FBS per well and mixed thoroughly. The diluted solutions (2 µL of diluted solution and 18 µL of PBS containing 10% FBS per well) were then co-incubated with the cells (37°C, 5% CO2) for five days, after which CellTiter-Glo reagent (40 µL per well) was added, and […] values were measured using an i3x microplate reader.

The test system of series [4] is NCI-N87. The experiment in a line: cells. Type of series: cell-based. The following applies: Homo sapiens, 120 h; NCI-N87 cells, five days co-incubation; read-out: IC50 (nM) NCI-N87. The procedure:
as §1

The subject of series [5] is OV90. The experiment in a line: cells. Format: cell-based. The following applies: Homo sapiens, OV-90, 120 h; OV90 cells, five days co-incubation; read-out: IC50 (nM) OV90. As for the experimental part:
as §1

`COc1cc2c(cc1O)CCN[C@]21CS[C@@H]2c3c(OC(C)=O)c(C)c4c(c3[C@H](COC1=O)N1[C@@H]2[C@H]2c3c(cc(C)c(OC)c3O)C[C@@H]([C@@H]1O)N2C)OCO4` [Trabectedin]: the HR in series [1] (disease progression or death, 95% CI: 0.44-0.70, p<0.001) was 0.55. In series [1] (more than 500 patients), the “median OS” value is listed as 13.7 months and the “risk of disease progression or death was reduced” value was 45%. In addition, in series [1] (more than 500 patients, n=345, 95% CI: 3.0-4.8 months), the “median PFS” value is 4.2 months. Further, in series [2], the “adverse reactions: constipation” value is 37%, the “adverse reactions: decreased appetite” value is recorded as 37%, the “adverse reactions: diarrhea” value is reported as 35% and the “adverse reactions: dyspnea” value is reported as 25%. Further, in series [2], the “adverse reactions: fatigue” value is given as 69%, the “adverse reactions: headache” value is reported as 25%, the “adverse reactions: nausea” value is on record as 75% and the “adverse reactions: peripheral edema” value is recorded as 28%. In series [2], the “adverse reactions: vomiting” value was 46%, the “grade 3-4 laboratory abnormalities: alanine transaminase (ALT) increase” value is listed as 31%, the “grade 3-4 laboratory abnormalities: anemia” value is reported as 19% and the “grade 3-4 laboratory abnormalities: aspartate transaminase (AST) increase” value is 17%. In addition, in series [2], the “grade 3-4 laboratory abnormalities: creatine kinase increase” value is 6.4%, the “grade 3-4 laboratory abnormalities: neutropenia” value is listed as 43% and the “grade 3-4 laboratory abnormalities: thrombocytopenia” value is listed as 21%. Besides, the IC50 in series [3] lay in the range of 1 to 10 nM. Moreover, the 50% inhibitory concentration (IC50) in series [4] is under 1 nM. For the same compound, the IC50 in series [5] was 10 to 200 nM.

What is called IC50 is the concentration at which inhibition is half-maximal.
